From ChEMBL document CHEMBL1833865, “Oleanane-type triterpene saponins from the bark of Aralia elata and their NF-κB inhibition and PPAR activation signal pathway” (Bioorg Med Chem Lett, 2011)
Calls of active or inactive are those of the source. The calls are words filed in the database; no cut-off is given here.

How the values were obtained:
Assay type in all cases: cell-based
HepG2 [1] = assay: Inhibition of NFkappaB activation expressed in human HepG2 cells assessed as reduction in TNF-alpha-induced iNOS mRNA expression preincubated 1 hr before TNFalpha challenge measured after 6 hrs by RT-PCR analysis
HepG2 [2] = assay: Inhibition of NF-kappaB activation expressed in human HepG2 cells assessed as reduction in TNFalpha-induced COX2 mRNA expression preincubated 1 hr before TNFalpha challenge measured after 6 hrs by RT-PCR analysis
HepG2 [3] = assay: Cytotoxicity against human HepG2 cells assessed as cell viability at 10 uM after 24 hrs by MTS assay; details: hepg2, 24 h
[4] = Inhibition of NF-kappaB activation expressed in TNFalpha-stimulated human HepG2 cells co-transfected with […] plasmid pretreated for 1 hr before TNFalpha challenge measured after 24 hrs by luciferase reporter gene assay
[5] = biological target: T1, Peroxisome proliferator-activated receptor gamma (Homo sapiens) (UniProt P37231); assay: Transactivation of Gal4-fused PPARgamma ligand binding domain expressed in human HepG2 cells co-transfected with pFR-Luc and pRL-CMV at 0.1 to 10 uM after 20 hrs by dual-luciferase reporter gene assay
T1 sequence (whole entry): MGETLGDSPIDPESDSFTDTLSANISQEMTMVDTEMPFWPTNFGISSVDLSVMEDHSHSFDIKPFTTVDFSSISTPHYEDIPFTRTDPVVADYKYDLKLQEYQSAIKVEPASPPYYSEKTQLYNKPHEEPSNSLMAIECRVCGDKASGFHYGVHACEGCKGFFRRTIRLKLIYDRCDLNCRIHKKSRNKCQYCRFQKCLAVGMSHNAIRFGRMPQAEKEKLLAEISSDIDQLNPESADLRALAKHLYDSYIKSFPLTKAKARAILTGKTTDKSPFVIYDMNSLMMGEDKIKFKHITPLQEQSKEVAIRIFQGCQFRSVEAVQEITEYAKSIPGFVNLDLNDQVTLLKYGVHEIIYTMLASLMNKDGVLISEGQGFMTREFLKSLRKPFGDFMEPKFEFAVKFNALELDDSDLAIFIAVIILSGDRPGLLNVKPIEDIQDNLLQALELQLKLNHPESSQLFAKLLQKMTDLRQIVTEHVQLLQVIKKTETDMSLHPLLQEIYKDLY

[6] = biological target: T2, Peroxisome proliferator-activated receptor delta (Homo sapiens) (UniProt Q03181); assay: Transactivation of Gal4-fused PPARbeta/delta ligand binding domain expressed in human HepG2 cells co-transfected with pFRLuc and pRL-CMV at 0.1 to 10 uM after 20 hrs by dual-luciferase reporter gene assay
T2 sequence (whole entry): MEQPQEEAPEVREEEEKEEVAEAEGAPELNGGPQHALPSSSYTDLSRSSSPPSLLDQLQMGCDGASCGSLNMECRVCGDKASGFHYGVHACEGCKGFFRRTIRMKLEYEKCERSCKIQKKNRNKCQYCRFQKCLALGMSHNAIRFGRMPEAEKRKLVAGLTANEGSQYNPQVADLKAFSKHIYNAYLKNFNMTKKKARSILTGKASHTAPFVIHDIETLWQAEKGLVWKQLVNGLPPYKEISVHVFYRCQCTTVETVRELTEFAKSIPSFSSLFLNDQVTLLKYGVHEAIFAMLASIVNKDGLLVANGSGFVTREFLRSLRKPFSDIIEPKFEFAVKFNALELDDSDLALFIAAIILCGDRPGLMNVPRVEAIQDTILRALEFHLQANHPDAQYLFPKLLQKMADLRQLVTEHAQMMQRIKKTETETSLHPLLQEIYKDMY

[7] = biological target: T3, Peroxisome proliferator-activated receptor alpha (Homo sapiens) (UniProt Q07869); assay: Transactivation of Gal4-fused PPARalpha ligand binding domain expressed in human HepG2 cells co-transfected with pFR-Luc and pRL-CMV at 0.1 to 10 uM after 20 hrs by dual-luciferase reporter gene assay
T3 sequence (whole entry): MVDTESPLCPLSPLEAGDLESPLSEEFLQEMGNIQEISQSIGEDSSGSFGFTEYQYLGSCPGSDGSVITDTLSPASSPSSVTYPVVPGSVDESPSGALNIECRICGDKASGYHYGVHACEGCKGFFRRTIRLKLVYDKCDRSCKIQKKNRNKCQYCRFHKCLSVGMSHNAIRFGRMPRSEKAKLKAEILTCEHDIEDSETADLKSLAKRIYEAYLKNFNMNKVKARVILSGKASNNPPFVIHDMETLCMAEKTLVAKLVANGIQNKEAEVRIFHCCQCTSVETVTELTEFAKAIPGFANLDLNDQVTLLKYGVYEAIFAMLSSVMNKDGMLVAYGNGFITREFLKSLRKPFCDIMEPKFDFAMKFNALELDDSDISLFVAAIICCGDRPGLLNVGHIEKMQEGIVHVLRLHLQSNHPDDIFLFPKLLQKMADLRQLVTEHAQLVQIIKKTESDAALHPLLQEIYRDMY

IC50 [4]	Activity [5]	Activity [6]	Activity [7]	Compound	inhibition (HepG2 [1])	inhibition (HepG2 [2])	Activity (HepG2 [3])
4.1 µM				CC1(C)CC[C@]2(C(=O)O[C@@H]3O[C@H](CO[C@@H]4O[C@H](CO)[C@@H](O)[C@H](O)[C@H]4O)[C@@H](O)[C@H](O)[C@H]3O)CC[C@]3(C)C(=CC[C@@H]4[C@@]5(C)CC[C@H](O[C@@H]6O[C@H](C(=O)O)[C@@H](O[C@@H]7O[C@@H](CO)[C@H](O)[C@H]7O)[C@H](O)[C@H]6O[C@@H]6O[C@H](CO[C@@H]7O[C@H](CO)[C@@H](O)[C@H](O)[C@H]7O)[C@@H](O)[C@H](O)[C@H]6O)C(C)(C)[C@@H]5CC[C@]43C)[C@@H]2C1 [ELATOSIDE L]	Dose-dependent effect	Dose-dependent effect	Non-toxic
	Active	inactive	inactive	CC1(C)CC[C@]2(C(=O)O[C@@H]3O[C@H](CO)[C@@H](O)[C@H](O)[C@H]3O)CC[C@]3(C)C(=CC[C@@H]4[C@@]5(C)CC[C@H](O[C@@H]6O[C@H](C(=O)O)[C@@H](O)[C@H](O[C@@H]7O[C@H](CO)[C@H](O)[C@H](O)[C@H]7O)[C@H]6O[C@@H]6O[C@H](CO)[C@H](O)[C@H](O)[C@H]6O)C(C)(C)[C@@H]5CC[C@]43C)[C@@H]2C1 [ELATOSIDE D]			Non-toxic
9.5 µM	Active	inactive	inactive	CC1(C)CC[C@]2(C(=O)O[C@@H]3O[C@H](CO)[C@@H](O)[C@H](O)[C@H]3O)CC[C@]3(C)C(=CC[C@@H]4[C@@]5(C)CC[C@H](O[C@@H]6O[C@H](C(=O)O)[C@@H](O)[C@H](O[C@@H]7O[C@H](CO)[C@@H](O)[C@H](O)[C@H]7O)[C@H]6O[C@@H]6OC[C@H](O)[C@H](O)[C@H]6O)C(C)(C)[C@@H]5CC[C@]43C)[C@@H]2C1	Dose-dependent effect	Dose-dependent effect	Non-toxic

The next lines start with the compound.

Compound	IC50 [4]	Activity [5]	Activity [6]	Activity [7]	inhibition (HepG2 [1])	inhibition (HepG2 [2])	Activity (HepG2 [3])
CC1(C)CC[C@]2(C(=O)O[C@@H]3O[C@H](CO)[C@@H](O)[C@H](O)[C@H]3O)CC[C@]3(C)C(=CC[C@@H]4[C@@]5(C)CC[C@H](O[C@@H]6O[C@H](C(=O)O)[C@@H](O[C@H]7O[C@@H](CO)[C@H](O)[C@H]7O)[C@H](O[C@@H]7O[C@H](CO)[C@@H](O)[C@H](O)[C@H]7O)[C@H]6O)C(C)(C)[C@@H]5CC[C@]43C)[C@@H]2C1 [STIPULEANOSIDE R2]							Non-toxic
COC(=O)[C@H]1O[C@@H](O[C@H]2CC[C@]3(C)[C@H]4CC=C5[C@@H]6CC(C)(C)CC[C@]6(C(=O)O[C@@H]6O[C@H](CO)[C@@H](O)[C@H](O)[C@H]6O)CC[C@@]5(C)[C@]4(C)CC[C@H]3C2(C)C)[C@H](O[C@@H]2OC[C@H](O)[C@H](O)[C@H]2O)[C@@H](O[C@@H]2O[C@H](CO)[C@@H](O)[C@H](O)[C@H]2O)[C@@H]1O		Active	inactive	inactive			Non-toxic
O=C(O)c1cc(/N=N/c2ccc(S(=O)(=O)Nc3ccccn3)cc2)ccc1O [SULFASALAZINE]	0.9 µM						
CC1(C)CC[C@]2(C(=O)O[C@@H]3O[C@H](CO)[C@@H](O)[C@H](O)[C@H]3O)CC[C@]3(C)C(=CC[C@@H]4[C@@]5(C)CC[C@H](O[C@@H]6O[C@H](C(=O)O)[C@@H](O[C@@H]7O[C@@H](CO)[C@H](O)[C@H]7O)[C@H](O)[C@H]6O[C@@H]6O[C@H](CO)[C@@H](O)[C@H](O)[C@H]6O)C(C)(C)[C@@H]5CC[C@]43C)[C@@H]2C1 [TARASAPONIN IV]							Non-toxic
